Experimental data reported in ChEMBL document CHEMBL1152620, “Carbonic anhydrase inhibitors. Diazenylbenzenesulfonamides are potent and selective inhibitors of the tumor-associated isozymes IX and XII over the cytosolic isoforms I and II” (Bioorg Med Chem, 2009).

Experiments:
Carbonic anhydrase 9 = Carbonic anhydrase 9 (Homo sapiens, UniProt Q16790); type: cell-based, Sf9
Description: Inhibition of human recombinant CA9 catalytic domain expressed in Sf9 cells by stopped flow CO2 hydration assay

[1] = Solubility in water; type: physicochemical; conditions: buffer
Carbonic anhydrase 12 = Carbonic anhydrase 12 (Homo sapiens, UniProt O43570); assay: Inhibition of human recombinant CA12 catalytic domain expressed in Sf9 cells by stopped flow CO2 hydration assay
Chain of Carbonic anhydrase 12 (O43570 whole entry, the tested form may be a part): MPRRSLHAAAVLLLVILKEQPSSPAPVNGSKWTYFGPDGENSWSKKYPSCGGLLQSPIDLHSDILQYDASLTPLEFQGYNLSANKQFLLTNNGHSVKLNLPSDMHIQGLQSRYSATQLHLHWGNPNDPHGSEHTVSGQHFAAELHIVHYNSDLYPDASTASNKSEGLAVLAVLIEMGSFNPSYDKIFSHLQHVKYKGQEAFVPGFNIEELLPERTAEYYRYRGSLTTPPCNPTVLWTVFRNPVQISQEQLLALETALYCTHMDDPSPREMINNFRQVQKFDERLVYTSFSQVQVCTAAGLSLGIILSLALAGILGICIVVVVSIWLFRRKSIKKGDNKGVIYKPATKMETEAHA

Structure (SMILES) | Ki (Carbonic anhydrase 9) [nM] | Ki (Carbonic anhydrase 12) [nM] | solubility [1]
CN(C)c1ccc(/N=N/c2cccc(S(N)(=O)=O)c2)cc1 | 6.4 |  | 
CN(CS(=O)(=O)[O-])c1ccc(/N=N/c2ccc(S(N)(=O)=O)cc2)cc1.[Na+] | 3.5 |  | Soluble
CN(CS(=O)(=O)O)c1ccccc1 [SODIUM(METHYL(PHENYL)AMINO)METHANESULFONATE] | 5850 |  | 
O=S(=O)(O)CNc1ccccc1 [SODIUM PHENYLAMINOMETHANESULFONATE] | 5100 |  | 
Nc1ccc(/N=N/c2ccc(S(N)(=O)=O)cc2)cc1 | 6 |  | 
CN(C)c1ccc(/N=N/c2ccc(S(N)(=O)=O)cc2)cc1 |  | 7.9 | 
Nc1ccc(/N=N/c2cccc(S(N)(=O)=O)c2)cc1 | 5.9 |  | 
CN(CS(=O)(=O)O)c1ccc(/N=N/c2cccc(S(N)(=O)=O)c2)cc1 | 63 |  | 
NS(=O)(=O)c1cccc(/N=N/c2ccc(O)cc2)c1 | 6.1 | 7.3 | 

Second part, led by results:

Ki (Carbonic anhydrase 9) [nM] | Ki (Carbonic anhydrase 12) [nM] | Structure (SMILES) | solubility [1]
6.4 | 5 | NS(=O)(=O)c1ccc(/N=N/c2ccc(O)cc2)cc1 | 
5.4 |  | NS(=O)(=O)c1ccc(/N=N/c2ccc(NCS(=O)(=O)[O-])cc2)cc1.[Na+] | Soluble
4.9 | 69.4 | CNc1ccc(/N=N/c2ccc(S(N)(=O)=O)cc2)cc1 | 
57 |  | NS(=O)(=O)c1cccc(/N=N/c2ccc(NCS(=O)(=O)O)cc2)c1 | 
